Data taken from patent US20230310445A1, “LOX ENZYME INHIBITING METHODS AND COMPOSITIONS” (ANOVIA BIOSCIENCES, INC., priority 2020, published 2023).
pIC50: −log10 of the molar value.

Key:
[1] = target: T1, Recombinant human LOXL2 (lysyl oxidase like 2) (Homo sapiens, UniProt Q9Y4K0); experiment: LOXL2 inhibition assay (fluorometric, cadaverine/Amplex Red/HRP); assay type: biochemical; conditions: IC50 class; recombinant human LOXL2, cadaverine substrate; read-out: Activity Range LOXL2
T1 construct: purchased R&D systems
T1 sequence (Q9Y4K0 26-774): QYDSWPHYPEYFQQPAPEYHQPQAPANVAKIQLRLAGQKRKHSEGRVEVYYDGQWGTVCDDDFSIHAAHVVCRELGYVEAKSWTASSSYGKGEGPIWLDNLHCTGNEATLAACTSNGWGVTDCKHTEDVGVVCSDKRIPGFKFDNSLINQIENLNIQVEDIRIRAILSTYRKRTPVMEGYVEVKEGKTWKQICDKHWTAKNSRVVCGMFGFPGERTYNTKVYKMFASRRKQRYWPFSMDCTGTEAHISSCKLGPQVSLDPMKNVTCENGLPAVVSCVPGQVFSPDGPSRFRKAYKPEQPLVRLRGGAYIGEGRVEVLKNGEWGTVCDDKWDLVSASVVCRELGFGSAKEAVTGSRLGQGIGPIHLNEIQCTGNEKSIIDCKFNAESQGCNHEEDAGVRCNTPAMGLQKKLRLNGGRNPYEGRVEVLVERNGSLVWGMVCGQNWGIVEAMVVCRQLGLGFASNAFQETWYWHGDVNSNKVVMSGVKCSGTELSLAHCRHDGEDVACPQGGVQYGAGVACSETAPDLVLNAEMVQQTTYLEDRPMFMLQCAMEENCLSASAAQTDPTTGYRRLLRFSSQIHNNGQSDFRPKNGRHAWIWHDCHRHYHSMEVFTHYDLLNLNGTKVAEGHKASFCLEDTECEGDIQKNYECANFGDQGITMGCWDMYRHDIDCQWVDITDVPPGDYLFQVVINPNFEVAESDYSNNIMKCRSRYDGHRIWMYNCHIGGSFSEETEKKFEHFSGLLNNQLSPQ
Outline: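 Both enzymes assayed in 1.2 M urea, 50 mM sodium borate pH 8.0, 10 mM CaCl, with 30 min compound–enzyme preincubation at 37° C before cadaverine/Amplex Red/HRP addition. Fluorescence followed 60 min at 37° C; linear-slope rates, background-subtracted, as % of DMSO control, fitted by 4-parameter variable-slope curve (bottom fixed at 0).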

[2] = target: T2, Bovine lysyl oxidase (LOX) (Bos taurus, UniProt P33072); experiment: LOX inhibition assay (fluorometric, cadaverine/Amplex Red/HRP); assay type: biochemical; conditions: IC50 class; bovine tendon LOX, cadaverine substrate; read-out: Activity Range LOX
T2 construct: from tissue; host or cells: adult bovine tendon
T2 sequence (P33072 170-418): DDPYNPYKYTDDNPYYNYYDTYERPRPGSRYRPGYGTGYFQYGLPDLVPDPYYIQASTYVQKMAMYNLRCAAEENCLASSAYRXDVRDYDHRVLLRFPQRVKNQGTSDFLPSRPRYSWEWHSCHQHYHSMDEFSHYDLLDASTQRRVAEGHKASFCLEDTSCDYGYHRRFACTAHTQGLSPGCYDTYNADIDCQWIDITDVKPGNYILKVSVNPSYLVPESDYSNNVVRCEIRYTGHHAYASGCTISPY
Outline: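 Bovine tendon-extracted LOX was preincubated 30 min at 37 °C with compound. Cadaverine/Amplex Red/HRP was then added and fluorescence (ex530/em600) monitored for 120 min at 37 °C. Progress-curve slopes, background-subtracted against no-protein wells, were normalised to DMSO controls and fitted with a four-parameter variable-slope dose-response model.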

Row | pIC50 [1] | pIC50 [2] | SMILES
1 | ≥ 6.30 | 4.52 to 6.00 | NCc1cc(S(=O)(=O)N2C[C@H](C(=O)N3CCS(=O)(=O)CC3)C[C@@H](c3ccccc3)C2)ccn1 (racemic) [Example 130T, trans-(1-((2-(Aminomethyl)pyridin-4-yl)sulfonyl)-5-phenylpiperidin-3-yl)(1,1-dioxidothiomorpholino)methanone 2,2,2-trifluoroacetate]
2 | 4.52 to 6.00 | < 4.52 | NCc1cncc(S(=O)(=O)N2C[C@@H](C(=O)N3CCOCC3)C[C@@H](c3ccccc3)C2)c1 (racemic) [Example 131, cis-(1-((5-(Aminomethyl)pyridin-3-yl)sulfonyl)-5-phenylpiperidin-3-yl)(morpholino)methanone 2,2,2-trifluoroacetate]
3 | 4.52 to 6.00 | < 4.52 | NCc1cncc(S(=O)(=O)N2C[C@@H](C(=O)N3CCS(=O)(=O)CC3)C[C@@H](c3ccccc3)C2)c1 (racemic) [Example 132, cis-(1-((5-(Aminomethyl)pyridin-3-yl)sulfonyl)-5-phenylpiperidin-3-yl)(1,1-dioxidothiomorpholino)methanone 2,2,2-trifluoroacetate]
4 | ≥ 6.30 | < 4.52 | CN(C)C(=O)N1C[C@@H](C2CCCCC2)C[C@@H](S(=O)(=O)c2cccc(CN)c2)C1 (racemic) [Example 135, cis-3-((3-(Aminomethyl)phenyl)sulfonyl)-5-cyclohexyl-N,N-dimethylpiperidine-1-carboxamide]
5 | ≥ 6.30 | < 4.52 | NCc1cccc(S(=O)(=O)[C@@H]2C[C@H](C3CCCCC3)CN(C(=O)N3CCS(=O)(=O)CC3)C2)c1 (racemic) [Example 137, cis-(3-((3-(Aminomethyl)phenyl)sulfonyl)-5-cyclohexylpiperidin-1-yl)(1,1-dioxidothiomorpholino)methanone]
6 | ≥ 6.30 | < 4.52 | NCc1cccc(S(=O)(=O)[C@H]2C[C@H](C3CCCCC3)CN(C(=O)N3CCS(=O)(=O)CC3)C2)c1 (racemic) [Example 137T, trans-(3-((3-(Aminomethyl)phenyl)sulfonyl)-5-cyclohexylpiperidin-1-yl)(1,1-dioxidothiomorpholino)methanone]
7 | ≥ 6.30 | < 4.52 | CN(C)C(=O)[C@@H]1C[C@H](S(=O)(=O)c2cccc(CN)c2)CN(C2CCCCC2)C1 (racemic) [Example 141, cis-5-((3-(Aminomethyl)phenyl)sulfonyl)-1-cyclohexyl-N,N-dimethylpiperidine-3-carboxamide]
8 | ≥ 6.30 | < 4.52 | CN(C)C(=O)[C@H]1C[C@H](S(=O)(=O)c2cccc(CN)c2)CN(C2CCCCC2)C1 (racemic) [Example 141T, trans-5-((3-(Aminomethyl)phenyl)sulfonyl)-1-cyclohexyl-N,N-dimethylpiperidine-3-carboxamide]
9 | ≥ 6.30 | < 4.52 | NCc1cccc(S(=O)(=O)[C@H]2C[C@@H](C(=O)N3CCOCC3)CN(C3CCCCC3)C2)c1 (racemic) [Example 142, cis-(5-((3-(Aminomethyl)phenyl)sulfonyl)-1-cyclohexylpiperidin-3-yl)(morpholino)methanone 2,2,2-trifluoroacetate]
10 | ≥ 6.30 | < 4.52 | NCc1cccc(S(=O)(=O)[C@H]2C[C@H](C(=O)N3CCOCC3)CN(C3CCCCC3)C2)c1 (racemic) [Example 142T, trans-(5-((3-(Aminomethyl)phenyl)sulfonyl)-1-cyclohexylpiperidin-3-yl)(morpholino)methanone 2,2,2-trifluoroacetate]
11 | ≥ 6.30 | < 4.52 | NCc1cccc(S(=O)(=O)[C@H]2C[C@@H](C(=O)N3CCS(=O)(=O)CC3)CN(C3CCCCC3)C2)c1 (racemic) [Example 143, cis-(5-((3-(Aminomethyl)phenyl)sulfonyl)-1-cyclohexylpiperidin-3-yl)(1,1-dioxidothiomorpholino)methanone 2,2,2-trifluoroacetate]
12 | ≥ 6.30 | 4.52 to 6.00 | NCc1ccnc(S(=O)(=O)N2C[C@@H](C(=O)N3CCS(=O)(=O)CC3)C[C@@H](N3CCCCC3)C2)c1 (racemic) [Example 148, cis-(1′-((4-(Aminomethyl)pyridin-2-yl)sulfonyl)-[1,3′-bipiperidin]-5′-yl)(1,1-dioxidothiomorpholino)methanone 2,2,2-trifluoroacetate]
13 | 6.00 to 6.30 | < 4.52 | CS(=O)(=O)N1CCN(C(=O)[C@H]2C[C@@H](N3CCCCC3)CN(S(=O)(=O)c3cc(CN)ccn3)C2)CC1 (racemic) [Example 149, cis-(1′-((4-(Aminomethyl)pyridin-2-yl)sulfonyl)-[1,3′-bipiperidin]-5′-yl)(4-(methylsulfonyl)piperazin-1-yl)methanone 2,2,2-trifluoroacetate]
14 | 6.00 to 6.30 | 4.52 to 6.00 | CN1CCN(C(=O)[C@H]2C[C@@H](N3CCCCC3)CN(S(=O)(=O)c3cc(CN)ccn3)C2)CC1 (racemic) [Example 150, cis-(1′-((4-(Aminomethyl)pyridin-2-yl)sulfonyl)-[1,3′-bipiperidin]-5′-yl)(4-methylpiperazin-1-yl)methanone 2,2,2-trifluoroacetate]
15 | 6.00 to 6.30 | 4.52 to 6.00 | NCc1ccnc(S(=O)(=O)N2C[C@@H](C(=O)N3CCOCC3)C[C@@H](N3CCOCC3)C2)c1 (racemic) [Example 155, cis-(1-((4-(Aminomethyl)pyridin-2-yl)sulfonyl)-5-morpholinopiperidin-3-yl)(morpholino)methanone 2,2,2-trifluoroacetate]
16 | ≥ 6.30 | 4.52 to 6.00 | NCc1ccnc(S(=O)(=O)N2C[C@H](C(=O)N3CCOCC3)C[C@H](N3CCCCC3=O)C2)c1 (racemic) [Example 186, cis-1′-((4-(Aminomethyl)pyridin-2-yl)sulfonyl)-5′-(morpholine-4-carbonyl)-[1,3′-bipiperidin]-2-one 2,2,2-trifluoroacetate]
17 | ≥ 6.30 | 4.52 to 6.00 | NCc1ccnc(S(=O)(=O)N2C[C@@H](C(=O)N3CCS(=O)(=O)CC3)C[C@@H](N3CCCCC3=O)C2)c1 (racemic) [Example 187, cis-1′-((4-(Aminomethyl)pyridin-2-yl)sulfonyl)-5′-(1,1-dioxidothiomorpholine-4-carbonyl)-[1,3′-bipiperidin]-2-one 2,2,2-trifluoroacetate]
18 | 4.52 to 6.00 | < 4.52 | NCc1cccc(S(=O)(=O)N2C[C@@H](C(=O)N3CCOCC3)C[C@@H](C(F)(F)F)C2)c1 (relative stereo) [Example 98, cis-(1-((3-(Aminomethyl)phenyl)sulfonyl)-5-(trifluoromethyl)piperidin-3-yl)(morpholino)methanone 2,2,2-trifluoroacetate]
19 | ≥ 6.30 | ≥ 6.30 | NCc1ccc(S(=O)(=O)N2C[C@@H](C(=O)N3CCOCC3)C[C@@H](c3ccccc3)C2)s1 [Example 13A, ((3S,5S)-1-((5-(aminomethyl)thiophen-2-yl)sulfonyl)-5-phenylpiperidin-3-yl)(morpholino)methanone]
